In US20120149026A1, “INSULIN RESISTANCE MARKER” (SHIMADZU CORPORATION, priority 2009, published 2012):

B1: proepithelin protein: epithelin precursor protein having seven kinds of epithelin domains; purchased from AdipoGen, Inc. (protein)
chain: MWTLVSWVALTAGLVAGTRCPDGQFCPVACCLDPGGASYSCCRPLLDKWPTTLSRHLGGPCQVDAHCSAGHSCIFTVSGTSSCCPFPEAVACGDGHHCCPRGFHCSADGRSCFQRSGNNSVGAIQCPDSQFECPDFSTCCVMVDGSWGCCPMPQASCCEDRVHCCPHGAFCDLVHTRCITPTGTHPLAKKLPAQRTNRAVALSSSVMCPDARSRCPDGSTCCELPSGKYGCCPMPNATCCSDHLHCCPQDTVCDLIQSKCLSKENATTDLLTKLPAHTVGDVKCDMEVSCPDGYTCCRLQSGAWGCCPFTQAVCCEDHIHCCPAGFTCDTQKGTCEQGPHQVPWMEKAPAHLSLPDPQALKRDVPCDNVSSCPSSDTCCQLTSGEWGCCPIPEAVCCSDHQHCCPQGYTCVAEGQCQRGSEIVAGLEKMPARRASLSHPRDIGCDQHTSCPVGQTCCPSLGGSWACCQLPHAVCCEDRQHCCPAGYTCNVKARSCEKEVVSAQPATFLARSPHVGVKDVECGEGHFCHDNQTCCRDNRQGWACCPYRQGVCCADRRHCCPAGFRCAARGTKCLRREAPRWDAPLRDPALRQLL
modifications: human

Key:
Assay type in all cases: cell-based, mouse
proepithelin protein = assay: Analysis of proepithelin protein by Western blotting in insulin resistance-induced adipocytes; settings: matured 3T3-L1 adipocytes; for expression amount of proepithelin protein relative to GADPH, increase versus control: 4 ng/mL TNFα for four days or 20 nM dexamethazone for eight days, p-value <0.05
Method: Using the matured adipocyte at the eighth or later day after the differentiation inducing treatment, the cells were cultured in an adipocyte maintenance medium added with 20 nM dexamethazone for eight days to induce insulin resistance, and an adipocyte in which insulin resistance was induced by dexamethazone was obtained. On the other hand, using the matured adipocyte at the eighth or later day after the differentiation inducing treatment, the cells were cultured for four days in an adipocyte maintenance medium added with 4 ng/mL TNFα to induce insulin resistance, and an adipocyte in which insulin resistance was induced by TNFα was obtained.
A matured adipocyte in which insulin resistance was induced by the method of Reference Example 2 was solubilized in a TNE buffer (1% (w/w) Nonidet P-40, 150 mM sodium chloride, 20 mM Tris-hydrochloride (pH 7.4), 2 mM EDTA, 10 μg/mL leupeptin, 10 μg/mL aprotinine, 5 mM mercaptoethanol, 1 mM: PMSF, 1 mM Na3VO4, 10 μM sodium molybdate, and 50 mM sodium fluoride), and a protein was extracted. The extracted protein was separated by SDS-polyacrylamide gel electrophoresis (SDS-PAGE), and then transferred to a polyvinylidene fluoride (PVDF) membrane or a nitrocellulose membrane. A goat anti-proepithelin antibody (R&D Systems) was used as a primary antibody, a rabbit anti-goat IgG HRP-labeled antibody (ZYMED) was used as a secondary antibody, and ECL Blotting Detection Reagents (GE Healthcare) were used for detection of an HRP-labeled antibody.
The result obtained in this example (analytical result of a proepithelin protein by the Western blotting method) is shown in FIG. 2. In FIG. 2A, the vertical axis represents a relative value of an expression amount of a proepithelin protein, relative to an expression amount of a house keeping protein GADPH, and for each of a control (Control), the adipocyte in which insulin resistance was induced by TNFα (TNFα), and the adipocyte in which insulin resistance was induced by dexamethazone (Dex), the relative value is shown (mean value±standard deviation (mean±S.D.), n=4, p-value: **<0.05). […]

proepithelin (aa297-309) = assay: Expression variation analysis of proepithelin protein by NBS method in insulin resistance-induced adipocytes; settings: matured 3T3-L1 adipocytes; 4 ng/mL TNFα for four days or 20 nM dexamethazone for eight days; p-value <0.05
Method: Mouse 3T3-L1 cells (ATCC No. CCL-92.1.) were added with Dulbecco's modified Eagle's medium—low glucose (Wako Pure Chemical Industries, Ltd.), 10% bovine serum (GIBCO BRL), and a penicillin/streptomycin solution (GIBCO BRL), and cultured at 37° C. in 5% carbon dioxide.
After reaching confluent, the cells were further cultured for two days. Then the medium was replaced by a differentiation inducing medium. As the differentiation inducing medium, Dulbecco's modified Eagle's medium—high glucose (Wako Pure Chemical Industries, Ltd.) added with 10% fetal bovine serum, a penicillin/streptomycin solution (GIBCO BRL), 0.5 mM 1-methyl-3-isobutylxanthine, 1 μM dexamethazone, and 5 μg/mL insulin was used.
After three days, the medium was replaced by Dulbecco's modified Eagle's medium—high glucose (Wako Pure Chemical Industries, Ltd.), 10% fetal bovine serum, a penicillin/streptomycin solution (GIBCO BRL), and 5 μg/mL insulin, and cultured for two days. […]
For the obtained digests, a treatment was conducted according to the protocol of the NBS labeling kit, and the NBS-labeled peptide was concentrated. […] Comparative quantification analysis between 12C-NBS-labeled peptide and 13C-NBS-labeled peptide was conducted from the results obtained by automatic analysis of MALDI-TOF MS (AXIMA-CFR Plus; SHIMADZU CORPORATION) by using pair peak analyzing software (TWIP). […]

pAkt-Ser473 = assay: Effect of proepithelin protein on insulin signaling (Akt phosphorylation, Western blotting); settings: matured 3T3-L1 adipocytes; proepithelin 10, 50, 100, 200 nM, cultured for 30 minutes, with or without 100 nM insulin; FIG. 6
Method: A matured adipocyte prepared according to the method of Reference Example 1 was added with 100 nM insulin and a proepithelin protein (AdipoGen, Inc.) and cultured for 30 minutes, or added with 100 nM insulin without addition of proepithelin protein and cultured for 30 minutes to prepare an adipocyte (+100 nM Insulin) stimulated by insulin. When the proepithelin protein was added, concentrations of the proepithelin protein were 10 nM, 50 nM, 100 nM, and 200 nM.
The obtained adipocyte stimulated by insulin was solubilized in an RIPA buffer {1% (W/w) Triton X-100, 1% sodium deoxycholate, 0.1% sodium dodecylsulfate, 150 mM sodium chloride, 20 mM Tris-hydrochloride (pH7.4), 2 mM EDTA, 10 μg/mL leupeptin, 10 μg/mL aprotinin, 5 mM mercaptoethanol, 1 mM PMSF, 1 mM Na3VO4, 10 μM sodium molybdate, 50 mM sodium fluoride}, and proteins were extracted.
The extracted proteins were subjected to the Western blotting method. Concretely, following separation by SDS-polyacrylamide gel electrophoresis (SOS-PAGE), the protein was transferred to a polyvinylidene fluoride (PVDF) membrane or a nitrocellulose membrane. […]

phosphorylated Akt = assay: Insulin signaling-suppressing action by constant presence of proepithelin protein (Akt phosphorylation, Western blotting); settings: matured 3T3-L1 adipocytes; proepithelin 50, 100, 200 nM for 6 hours, then 100 nM insulin for 30 minutes; FIG. 7
Method: A matured adipocyte prepared according to the method of Reference Example 1 was added with a proepithelin protein (AdipoGen, Inc.) and incubated for 6 hours, and then added with 100 nM insulin and cultured for 30 minutes, or added with 100 nM insulin without addition of a proepithelin protein, and cultured for 30 minutes, to prepare an adipocytes stimulated by insulin (+100 nM Insulin). When the proepithelin protein was added, concentrations of the proepithelin protein were set at 50 nM, 100 nM, and 200 nM.
A matured adipocyte prepared according to the method of Reference Example 1 was added with a proepithelin protein (AdipoGen, Inc.) and cultured for 6 hours, or cultured for 30 minutes without addition of both insulin and a proepithelin protein, to prepare an adipocyte not stimulated with insulin (−Insulin). When the proepithelin protein was added, concentrations of the proepithelin protein were set at 50 nM, 100 nM, and 200 nM.
For each of the adipocyte stimulated by insulin (+100 nM Insulin) and the adipocyte not stimulated by insulin (−Insulin) obtained in the manner as described above, protein extraction and Western blotting were conducted in the same manner as in Example 6.

Molecule	expression amount of proepithelin protein relative to GADPH, increase versus control (proepithelin protein) [times]	relative intensity of proepithelin (aa297-309) NBS-labeled peptide, insulin resistance adipocyte relative to normal adipocyte (proepithelin (aa297-309)) [times]	upregulation of proepithelin protein with varied inducer concentration (proepithelin protein; concentrations of TNFα (ng/ml) and dexamethazone (nM) changed, FIG. 3)	phosphorylation level at 473th serine in the Akt protein (pAkt-Ser473)	phosphorylation level of an Akt protein after preliminary treatment (phosphorylated Akt)
C[C@@H]1C[C@H]2[C@@H]3CCC4=CC(=O)C=C[C@]4(C)[C@@]3(F)[C@@H](O)C[C@]2(C)[C@@]1(O)C(=O)CO [dexamethazone]	1.95	3.01	–	–	–
tumor necrosis factor α [TNFα]	1.83	1.66	dependent on the concentration	–	–
B1	–	–	–	increased with the concentration of added proepithelin	decreased
